The values that follow come from patent publication US20260091078A1, “OLIGOPEPTIDE THAT INHIBITS ANGIOGENESIS AND VASCULAR FUNCTION” (UNIVERSIDAD NACIONAL AUTONOMA DE MEXICO, priority 2019, published 2026).

In experiment [1] the test system is VEGF-induced retinal vasopermeability. Description: Vasopermeability in vivo: VEGF-induced retinal albumin extravasation (Evans blue method). To be noted: Wistar rats, intravitreal, 20 μM with 300 ng VEGF, 24 hours. As for the experimental part: For evaluating if the oligopeptide THGRGFI conserves the inhibitory properties of vasoinhibin on VEGF-induced vasopermeability in vivo, the effect of the intravitreal injection of VEGF alone or in combination with the oligopeptide or vasoinhibin in rats was determined.
Wistar rats were intravitreally injected with saline (control) or with 300 ng of VEGF in each case alone or in combination with 20 μM of the oligopeptide of the invention or with 20 μM of vasoinhibin. After 24 hours, the extravasation of albumin into the retina was evaluated using the Evans blue method. Briefly, 45 mg kg^−1 of total weight of the Evans blue dye was injected intravenously to anesthetized rats and was allowed to circulate for 2 hours. Then, the animals were perfused with ˜80 ml of PBS at a flow of ˜40 ml min^−1. The retinas were dissected, dried and incubated with 200 μl of formamide (Mallinckrodt Baker, Phillipsburg, NJ) at 72° C. and after 18 hours the labeled albumin was determined in the retinal extracts.

Experiment [2] has as its system intracellular adhesion molecule 1 (ICAM1). Description: Expression of vasoinhibin target gene ICAM1 mRNA in BUVEC E6E7 (qPCR). In kind it is cell-based, bovine. The conditions noted are these: BUVEC E6E7, 100 nM, 4 hours. As for the experimental part:
Vasoinhibin induces the expression of a variety of genes via the activation of NF-KB to promote angiostatic and inflammatory effects. In particular, interleukin-1 alpha (IL-1α) and the intercellular adhesion molecule 1 (ICAM1) are vasoinhibin gene targets in the bovine endothelial cells. To evaluate the ability of the oligopeptide […] to induce the expression of IL-1α and ICAM1, BUVEC […] cells were seeded on 12 well plates with F12K-10% FBS, grown to 80% confluency, and starved with low serum (0.1% FBS) culture medium for 24 h. […] After 4 hours the RNA was extracted from the cells using Trizol (Invitrogen, Carlsbad, CA) and retrotranscribed using the High Capacity cDNA Reverse Transcription Kit (Applied Biosystems, Foster City, CA). The RT-PCR products were quantified in a Maxima SYBRgreen qPCR (Thermo Fisher Scientific) 10 μl final volume reaction mixture containing the template and 0.25 μM of each primer. The PCR amplification was done in the CFX96 Real Time PCR (BioRad), comprising a 10-minute denaturalization at 95° C., followed by 35 amplification cycles (95° C. for 10 sec, 58° C. for 30 sec, and 72° C. for 30 sec). […] The PCR data was analyzed by the 2^-ΔΔCT method and the threshold of the cycles (CT) was normalized by the constitutive housekeeping gene cyclophilin A (PPIA). […]
In general terms: In qPCR the cycle at which signal appears reflects the starting amount.

Experiment [3] concerns human umbilical-vein endothelial cells (HUVEC). As to the kind of experiment: Proliferation of HUVEC stimulated with VEGF and bFGF (EdU click assay). It is filed as cell-based. To be noted: HUVEC, 25 ng ml^-1 VEGF and 20 ng ml^-1 bFGF, 24 hours, 0.001 to 100 nM; read-out: effective dose (EC50) for inhibition of proliferation. As for the experimental part: On a 96-well plate treated for cell culture, BUVEC E6E7 and HUVEC cells were seeded at a density of ˜14,000 and ˜11,000 cells cm^−2, respectively. BUVEC E6E7 cells were maintained in F12K culture media with 10% (v/v) fetal bovine serum (FBS) and the HUVEC in F12K media supplemented with 20% of FBS, 100 μg ml^−1 heparin and 25 μg ml^−1 of endothelial cell growth supplement (ECGS). After 24 hours, the cells were starved with FBS-reduced media (0.1% of FBS for BUVEC E6E7 and 0.5% for HUVEC) for 16 hours to synchronize cells in phase GO of the reproductive cycle. After this time, FBS and heparin were replenished only to HUVEC. The cells were then treated with vasoinhibin or the oligopeptide THGRGFI in concentrations ranging from 0.001 to 100 nM for 24 hours in the presence of 10 μM of the thymidine analog 5-Ethynyl-2′-deoxyuridine (EdU) and 50 ng ml^−1 VEGF for the BUVEC E6E7 or the combination of 25 ng ml^−1 VEGF and 20 ng ml^−1 bFGF for HUVEC. At the end of the experiment, cells were fixed with 4% paraformaldehyde, permeabilized with 0.5% Triton X-100 in TBS1x, and stained to detect the newly synthetized DNA by the incorporation of EdU using the “click” assay (which involves a copper catalyzed reaction to covalently bind fluorescent azide to the EDU incorporated to DNA). Total DNA was counterstained with Hoechst 33342 and the “click”-stained nuclei were quantified and plotted relative to the total number of Hoechst 33342-stained nuclei.
HUVEC were seeded on a 96 well plate at a density of ˜11,000 cells cm^−2 and maintained in F12K supplemented with 20% of FBS, 100 μg ml^−1 heparin and 25 μg ml^−1 endothelial cell growth supplement (ECGS). After 24 hours, the cells were synchronized in GO with starving conditions (FBS 0.5%) for 16 hours, and after that FBS and the heparin were replenished. Cells were then treated with THGRGFI, the different oligopeptides and 123 amino acids vasoinhibin, each in a concentration of 100 nM, for 24 hours in presence or absence of 10 μM of thymidine analog 5-Ethynyl-2′-deoxyuridine (EdU) and a combination of 25 ng ml^−1 VEGF and 20 ng ml^−1 bFGF. Finally, the cells were fixed with 4% paraformaldehyde, permeabilized with 0.5% of Triton X-100 in TBS1x and stained for the newly synthetized DNA with the ‘click’ method that detects the EdU incorporation. Total DNA was stained with Hoechst 33342 and the percentage of ‘click’-stained nuclei relative to total nuclei (Hoechst 33342-stained) indicated cell proliferation.
Approximately 11,000 HUVEC cells cm^−2 were seeded on a 96 well plate in F12K media with 20% FBS, 100 μg ml^−1 heparin and 25 μg ml^−1 ECGS. After 24 hours, cells were starved with 0.5% of FBS for ˜16 hours, and after that time the FBS and heparin were added again and cells treated with different doses of the alanine substituted oligopeptides for 24 hours, in the presence of EdU and a combination of 25 ng ml^−1 VEGF and 20 ng ml^−1 bFGF. Finally, the cells were fixed, permeabilized and stained to quantify the synthesis of DNA as a sign of proliferation.

Regarding “Ac-THGRGFI-NH2 [THGRGFI, Thr His Gly Arg Gly Phe Ile]”, in experiment [1], the “inhibition of VEGF-induced retinal vasopermeability” value is recorded as “blocks the VEGF increase in retinal vasopermeability”. Further, in experiment [2], the “fold-change of expression of ICAM1 mRNA versus non-treated control” value is listed as approximately 13 fold. Moreover, the EC50 in experiment [3] is approximately 1 nM.
